What was measured:
Format in all cases: cell-based
[1] = test system: GABA receptor subunits (Gabra1, Gabra2, Gabra5, Gabrg2); assay: Isolation and detection of target molecule from living tissue (brain slices) using the probe, LC-MS; settings: DBA/2CrSlc mouse brain slices, CPF-202 302 nm UV 1 minute, CPF-242 365 nm UV 15 minutes, FIGS. 3 and 4
Protocol: (§1) A DBA/2CrSlc mouse was anesthetized by isoflurane inhalation and then decapitated, and the brain was quickly removed. The removed brain was immersed in artificial cerebrospinal fluid (ACSF) at 0° C. for 60 seconds while being continuously bubbled with a gas mixture (95% O2, 5% CO2). The olfactory bulb and cerebellum were removed with a scalpel, and the brain was fixed to the stage of a vibrating blade microtome (Leica, VT1200) using instant glue. Sliced sections (thin sections having a thickness of 0.3 mm) of the brain containing the striatum and hippocampus were prepared in ACSF at 0° C. continuously bubbled with the gas mixture. The sliced sections were placed in a dish containing artificial cerebrospinal fluid. An unmodified ligand or DMSO was added, and the dish was allowed to stand at room temperature for 5 minutes. Subsequently, compound (CPF-224) produced in Production Example 10 or compound (CPF-202) produced in Production Example 8 was added, and the dish was allowed to stand at room temperature for 30 minutes. The solution was removed, and the sliced sections were irradiated with UV light (in the cases of CPF-224 and CPF-202, 302 nm UV light for 1 minute; in the case of CPF242, 365 nm UV light for 15 minutes). The sliced sections were washed and collected with PBS, and the supernatant was removed by centrifugation (3000×g, 4° C., 5 minutes). The obtained pellets were analyzed by the same method as in Test Example 1. The analysis was performed in two independent tests, and the results can be expressed as a ratio relative to those in the group treated with the unmodified ligand.

[2] = test system: AMPA-type glutamate receptors (Gria1, Gria2, Gria3, Gria4); assay: as above; settings: DBA/2CrSlc mouse brain slices, 302 nm UV 1 minute, two independent tests, FIG. 2
Protocol: as §1

[3] = target: T1, human dopamine receptor D2 (DRD2) (Homo sapiens, UniProt P14416); assay: Isolation and detection of target molecule from living cells using the probe (UV crosslinking, streptavidin enrichment, LC-MS); settings: CHO-K1 cells stably expressing human DRD2; 302 nm UV 1 minute; LC-MS LFQ; two independent tests; FIG. 1
T1 construct: expressed in transfected cells; host or cells: CHO-K1
T1 sequence (P14416 whole entry): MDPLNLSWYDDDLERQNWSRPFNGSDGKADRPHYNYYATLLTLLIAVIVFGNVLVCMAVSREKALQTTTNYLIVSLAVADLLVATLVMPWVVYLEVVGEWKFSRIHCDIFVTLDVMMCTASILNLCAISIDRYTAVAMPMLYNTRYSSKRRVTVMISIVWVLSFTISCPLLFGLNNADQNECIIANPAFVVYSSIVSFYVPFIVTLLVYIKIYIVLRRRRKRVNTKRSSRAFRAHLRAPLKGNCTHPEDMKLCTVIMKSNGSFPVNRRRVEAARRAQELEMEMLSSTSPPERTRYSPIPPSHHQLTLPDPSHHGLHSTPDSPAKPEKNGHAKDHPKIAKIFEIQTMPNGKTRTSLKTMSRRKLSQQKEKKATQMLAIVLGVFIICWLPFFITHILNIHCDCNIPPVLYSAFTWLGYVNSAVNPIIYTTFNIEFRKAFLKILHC
Protocol: CHO-K1 cells stably expressing human dopamine receptor D2 (DRD2) were cultured on a 10-cm plate until they became confluent.
The cells were washed with a medium, and the medium was replaced with a medium containing DMSO or an unmodified ligand, followed by a reaction for 30 minutes. Subsequently, the medium was discarded and replaced with a medium containing compound (CPP-127) synthesized in Production Example 12, and the cells were allowed to stand at 37° C. for 30 minutes. The medium was discarded, and the cells were washed with PBS. PBS (1 ml) was added to the cells on the plate, and then the cells were irradiated with 302 nm UV light for 1 minute using a UV crosslinker. The cells were collected with a cell scraper after UV irradiation, and the collected cell pellets were cryopreserved at −80° C.
The cryopreserved cells were suspended in 50 mM Tris Homogenate Buffer (pH 7.4, 2.5 mM EDTA, 5 mM MgCl2, 320 mM sucrose) and homogenized using a sonicator. […]
The obtained tryptic digest was desalted and purified, and protein analysis was performed by LC-MS. […] A full scan MS spectrum was acquired in the m/z range of 380 to 1600, and a product ion spectrum was measured in data dependent acquisition mode. The data obtained by LC-MS were analyzed by Proteome Discoverer 2.2 analysis software (PD 2.2, Thermo Fisher Scientific). […]

Row | Structure (SMILES) | detection of GABA receptor subunits compared with the group treated with the unmodified ligand [1] | also measured
1 | CC1(C)CC(=O)C(=C(CCOCCOCCOCCOCCNC(=O)CCCC[C@@H]2SC[C@@H]3NC(=O)N[C@@H]32)NCCCC(=O)Nc2ccc(-n3nnc(C(=O)NCCCN4C(=O)CN=C(c5ccccc5)c5cc(Cl)ccc54)n3)cc2)C(=O)C1 [CPF-202] | specifically collected | –
2 | CC1(C)CC(=O)C(=C(CCOCCOCCOCCOCCNC(=O)CCCC[C@@H]2SC[C@@H]3NC(=O)N[C@@H]32)NCCCC(=O)Nc2ccc(-n3nnc(C(=O)NCc4ccn(-c5cc6c(cc5C(F)(F)F)[nH]c(=O)c(=O)n6CC(=O)O)c4)n3)cc2)C(=O)C1 [CPF-224] | – | detection of AMPA-type glutamate receptors compared with the group treated with the unmodified ligand [2]: specifically collected
3 | CC1(C)CC(=O)C(=C(CCOCCOCCOCCOCCNC(=O)CCCC[C@@H]2SC[C@@H]3NC(=O)N[C@@H]32)NCCCCCNC(=O)CCC2(CCC(=O)NCCCN3C(=O)CN=C(c4ccccc4)c4cc(Cl)ccc43)N=N2)C(=O)C1 [CPF-242] | specifically collected | –
4 | CC1(C)CC(=O)C(=C(CCOCCOCCOCCOCCNC(=O)CCCC[C@@H]2SC[C@@H]3NC(=O)N[C@@H]32)NCCCC(=O)Nc2ccc(-n3nnc(C(=O)NCCCCC(=O)NCCCN4CCc5ccc(OCCCN6CCN(c7cccc8sccc78)CC6)cc5C4=O)n3)cc2)C(=O)C1 [CPP-127] | – | detection of dopamine receptor D2 compared with the group treated with the unmodified ligand [3]: specifically collected
